The values below come from patent US4567182A, “Compounds endowed with immunomodulating activity” (Co Pharma Corporation s.r.l., priority 1981, dated 1986).

The test system of assay [1] is T-lymphocytes. Put plainly: Ability of T-lymphocytes to form "active" E-rosettes. It is filed as cell-based. The method, then: The effect of the compounds object of this invention on the ability of T-lymphocytes to form "active" E-rosettes, has also been studied (Pasino e coll., Boll. Ist. Sieroter, Mil. 60, 4, 297-301, 1981).
Lymphocytes were incubated at 4° for 24 hours, then isolated and incubated for 90 min. in the presence or absence of different concentrations of the drug prior to the assay. Data were expressed as % of cells forming rosettes: as an example, compound (Ib-2) gave an enhancement of the percentage from 35 to 50%, at concentrations from 1 and 3 μg/ml; higher concentrations, the percentage of active E-rosettes decreased.

For assay [2], the system named is PHA stimulated lymphocytes. Put plainly: Stimulation by phytohemagglutinin (PHA) of lymphocytes from Hodgkin's disease patients. It is filed as cell-based, human (patients affected by Hodgkin's disease). The settings on record: for effect on the PHA response: Ib-4 already at 0.1 γ/ml, methisoprinol at 200-400 γ/ml. From the text: In FIG. 1, the effects of compound (Ib-4) are shown in comparison with methisoprinol on the stimulation by phytohemagglutinin (PHA) of lymphocytes extracted by patients affected by Hodgkin's disease and off-therapy since, at least, 17 months. The PHA response of lymphocytes of these patients are below normal range.
The in vitro effect of (Ib, 4) and methisoprinol on the stimulation by PHA of lymphocytes was studied by cultivating PHA stimulated lymphocytes in the presence of these compounds at different doses: methisoprinol at 100, 200, 400 γ/ml; (Ib-4) at 0.1, 0.5, 1 and 5 γ/ml.

Assay [3] relates to polymorphonuclear leucocytes. Put plainly: Polymorphonuclear (PMN) membrane-stimulated oxidative metabolic activity (superoxide production). The format is cell-based. The protocol:
In FIG. 2 the results of the study of the effect of (Ib-4) on the polymorphonuclear (PMN) […] membrane-stimulated oxidative metabolic activity are reported: polymorphonuclear leucocytes (2.5×10^4 /ml) in phosphate buffer solution (PBS) were incubated for 15' at 37° C. with ferricytochrome C (1.5 mg/ml) in the presence or absence of superoxide dismutase (SOD) (0.125 mg/ml) after the addition of 50 μl of stimulating agent.
The amount of reduced cytochrome C in che cell free supernatant was determined spectrophotometrically at 550 nm and the O2^- release calculated according to a standard formula. Appropriate control tubes contained fixed doses of (Ib-4) (from 0.01 γ/ml to 200 γ/ml).

In assay [4] the test system is spleen cells from BALB/C mice. Description: Incorporation of labelled thymidine stimulated by PHA or LPS in spleen cells. The format is cell-based, mouse (BALB/C). Also on record: Thymid. inc.: unit not given here. The protocol: Ib-4 is also active, at doses ranging from 0.001 to 40 μg/ml, in inhibiting the incorporation of labelled thymidine stimulated by phytohemagglutinin (PHA) or lypopolysaccharides (LPS), in spleen cells from BALB/C mice 8-10 weeks old. The inhibition of the proliferation in vitro is dose-dependent and it is probably due to activation of suppressor cell mechanism. In the following table the results of thymidine incorporation in a 10^6 cells/ml culture have been listed.

Assay [5] concerns autologous lymphocytes stimulated by concanavalin A. Description: Suppressor cell effect: proliferative response of autologous lymphocytes stimulated by concanavalin A. It is filed as cell-based, human (healthy volunteers). The conditions noted are these: 0.1 to 1.5 μg/ml; 48 h drug incubation; concanavalin A 3 days. The method, then:
(§1) The effect of (Ib-4) on the suppressor cell has also been studied using lymphocytes from healthy volunteers, incubated for 48 hours with different drug concentrations then washed and incubated either with autologous lymphocytes stimulated by concanavalin A for 3 days or with allogeneic mitomycin-treated lymphocytes for 5 days (Mixed Lymphocytes Reaction): (Ib-4), at concentrations between 0.1 and 1.5 μg/ml, gave an inhibition of the proliferative response of about 60% in comparison with controls.

For assay [6], the system named is allogeneic mitomycin-treated lymphocytes. Put plainly: Suppressor cell effect: Mixed Lymphocytes Reaction. The format is cell-based, human (healthy volunteers). The settings on record: 0.1 to 1.5 μg/ml; 48 h drug incubation; mixed lymphocytes 5 days. The protocol: as §1

As to `CC(NC(=O)CCC(=O)OCCn1cnc2c(O)ncnc21)C(=O)O` (racemic) [Ib-2, 6-Hydroxy-9-{2-[2-(1-carboxy)ethylaminocarbonylethyl]carbonyloxyethyl}purine], in assay [1] (1 and 3 μg/ml, enhanced from 35%, 90 min incubation), the “% of cells forming active E-rosettes” value was 50%. Moreover, the “percentage of active E-rosettes at higher concentrations” value in assay [1] (concentrations higher than 1 and 3 μg/ml) was “decreased”.
Regarding `N=C(NCCC[C@H](N)C(=O)O)NC(=O)CCC(=O)OCCn1cnc2c(O)ncnc21` [Ib-4, N-{3-[2-(6-hydroxypurinyl-9)-ethoxycarbonyl]propionyl}-N'-(4-carboxy-4-amino-butyl)guanidine], the minimal effective concentration in assay [2] (Homo sapiens, Lymphocyte, in vitro, lymphocytes of Hodgkin's disease patients off-therapy, read-out: dose producing enhancement of the PHA response) was at most 0.1 µg/mL. For the same compound, in assay [2], the “effect on the PHA response” value was “marked enhancement of the PHA response”. The “enhancement in the superoxide production” value in assay [3] (1 γ/ml, T-test for paired data) is listed as “statistically significant enhancement in the superoxide production”. For the same compound, the “O2- production at higher dosages” value in assay [3] (dosages higher than 1 γ/ml (up to 200 γ/ml)) is “gradual decrease of the O2^- production”. The Thymid. inc. is 729+/-51 in assay [4] (LPS (printed LPSD), drug 0.1 μg/ml, control without drug 15631+/-215); 4600+/-85 in assay [4] (LPS, drug 0.001 μg/ml, control without drug 15631+/-215); 435+/-113 in assay [4] (LPS, drug 0.01 μg/ml, control without drug 15631+/-215); 665+/-19 in assay [4] (LPS, drug 1 μg/ml, control without drug 15631+/-215); 627+/-40 in assay [4] (LPS, drug 2.5 μg/ml, control without drug 15631+/-215); 445+/-44 in assay [4] (LPS, drug 5 μg/ml, control without drug 15631+/-215). The Thymid. inc. is on record as 385+/-38 in assay [4] (LPS, drug 10 μg/ml, control without drug 15631+/-215); 405+/-51 in assay [4] (LPS, drug 15 μg/ml, control without drug 15631+/-215); 385+/-38 in assay [4] (LPS, drug 20 μg/ml, control without drug 15631+/-215); 329+/-23 in assay [4] (LPS, drug 40 μg/ml, 10^6 cells/ml, control without drug 15631+/-215); 840+/-87 in assay [4] (PHA, drug 0.001 μg/ml, control without drug 3089+/-177); 850+/-61 in assay [4] (PHA, drug 0.01 μg/ml, control without drug 3089+/-177). Also, the Thymid. inc. in assay [4] (PHA, drug 0.1 μg/ml, control without drug 3089+/-177) is on record as 721+/-77; in assay [4] (PHA, drug 1 μg/ml, control without drug 3089+/-177), 316+/-78; in assay [4] (PHA, drug 2.5 μg/ml, control without drug 3089+/-177), 250+/-34; in assay [4] (PHA, drug 5 μg/ml, control without drug 3089+/-177), 193+/-50; in assay [4] (PHA, drug 10 μg/ml, control without drug 3089+/-177), 146+/-19; in assay [4] (PHA, drug 15 μg/ml, control without drug 3089+/-177), 141+/-40. Further, the Thymid. inc. was 241+/-16 in assay [4] (PHA, drug 20 μg/ml, control without drug 3089+/-177) and 159+/-13 in assay [4] (PHA, drug 40 μg/ml, 10^6 cells/ml, control without drug 3089+/-177). Besides, the “inhibition of the proliferation in vitro” value in assay [4] (PHA or LPS stimulated, 0.001 to 40 μg/ml) was “dose-dependent”. Besides, the “inhibition of the proliferative response in comparison with controls” value in assay [5] and in assay [6] was “about 60%” throughout.
On to methisoprinol [reference compound], for which, in assay [2], the “effect on the PHA response” value was “a stimulating effect which is less than that produced by (Ib-4)”. Moreover, the “dose producing enhancement of the PHA response” value in assay [2] (in vitro, lymphocytes of Hodgkin's disease patients off-therapy) was 200 to 400 µg/mL.
